Measurements reported in patent US20250281564A1, “DYSREGULATION OF NEUROPROTEASOMES BY APOE ISOFORMS DRIVES ENDOGENOUS TAU AGGREGATION” (The Trustees of Columbia University in the City of New York, priority 2022, published 2025).

What was measured:
newly synthesized Tau = assay: Puro-PLA-Tau: proximity ligation with puromycylation for newly synthesized Tau; type: cell-based
Text: Analysis was done blinded to experimental condition. […] Scale bar=100 μm (right).

primary cortical neurons [1] = assay: Quantitative TMT proteomics of sarkosyl-soluble and sarkosyl-insoluble fractions; type: cell-based, mouse; conditions: 1 and 6 hours
Text: (FIG. 4A) (Top) Structure of azide-PEG24-epoxomicin handle to enable rapid conjugation of linkers to global proteasome inhibitor epoxomicin using Click chemistry. (Bottom) Structure of Neuroproteasome-specific inhibitor impermeant Biotin-PEG24-Epoxomicin (iBEp). (FIG. 4B) Assessing permeability of iBEp in primary neurons. […] Cytosolic (Cyto) and membrane (Mem) fractions were immunoblotted using indicated antibodies. (FIG. 4C) Proteasome catalytic activity of membrane (Mem) and cytosolic (Cyto) fractions of neurons treated with iBEp. […] Proteasome catalytic activity was assessed by monitoring degradation of Suc-LLVY-AMC; proteasome-dependent cleavage of the substrate increases AMC fluorescence. N=3 biological replicates. **** p<0.0001 by One-Way ANOVA. (FIG. 4D) Primary neurons treated with iBEp probed for autophagy markers. […] Lysates were immunoblotted using indicated antibodies against common autophagy markers. Quantification of p62, LC3b, and Ulk1 intensities normalized to Actin. […] (FIG. 4E) Schematic to analyze changes in sarkosyl-soluble and insoluble proteomes in response to neuroproteasome inhibition. […] Sarkosyl-soluble and insoluble fractions were labeled with Tandem Mass Tags (TMTpro) for quantitative mass spectrometry. (FIG. 4F) Differential enrichment of proteins in the sarkosyl-soluble fraction of neurons treated with iBEp versus DMSO was analyzed and plotted as log 2-fold change vs-log 10 (P-value). Green dots represent proteins enriched in the iBEp treatment compared to DMSO treatment. (FIG. 4G) Graphs plotting the log 2-fold change of select Neuroproteasome substrates enriched in the sarkosyl-soluble fraction from MS analysis in (FIG. 4F) compared to UPS substrates and autophagy markers ** p<0.01 (adjusted p-value after multiple corrections). (FIG. 4H) Differential enrichment of proteins in the sarkosyl-insoluble fraction of neurons treated with iBEp versus DMSO was analyzed and plotted as log 2-fold change vs −log 10 (P-value). Green dots represent proteins enriched in the iBEp treatment compared to DMSO treatment. […]

neuroproteasomes = target: T1, neuroproteasomes (Mus musculus, UniProt O55234+P70195+Q60692); assay: Suc-LLVY-AMC proteasome activity, membrane fraction of iBEp-treated neurons; type: cell-based; conditions: 6 hours, DIV14 neurons, vs DMSO
T1 construct: endogenous in cells; host or cells: primary cortical neurons from WT mice (DIV13-14); membrane and cytosolic fractions
Text: (§1) (FIG. 4A) (Top) Structure of azide-PEG24-epoxomicin handle to enable rapid conjugation of linkers to global proteasome inhibitor epoxomicin using Click chemistry. (Bottom) Structure of Neuroproteasome-specific inhibitor impermeant Biotin-PEG24-Epoxomicin (iBEp). (FIG. 4B) Assessing permeability of iBEp in primary neurons. […] Cytosolic (Cyto) and membrane (Mem) fractions were immunoblotted using indicated antibodies. (FIG. 4C) Proteasome catalytic activity of membrane (Mem) and cytosolic (Cyto) fractions of neurons treated with iBEp. […] Proteasome catalytic activity was assessed by monitoring degradation of Suc-LLVY-AMC; proteasome-dependent cleavage of the substrate increases AMC fluorescence. N=3 biological replicates. **** p<0.0001 by One-Way ANOVA. (FIG. 4D) Primary neurons treated with iBEp probed for autophagy markers. […] Quantification of p62, LC3b, and Ulk1 intensities normalized to Actin. […] Sarkosyl-soluble and insoluble fractions were labeled with Tandem Mass Tags (TMTpro) for quantitative mass spectrometry. (FIG. 4F) Differential enrichment of proteins in the sarkosyl-soluble fraction of neurons treated with iBEp versus DMSO was analyzed and plotted as log 2-fold change vs-log 10 (P-value). […] (FIG. 4H) Differential enrichment of proteins in the sarkosyl-insoluble fraction of neurons treated with iBEp versus DMSO was analyzed and plotted as log 2-fold change vs −log 10 (P-value). […]

primary cortical neurons [2] = assay: Permeability of iBEp in primary cortical neurons: membrane fractionation and biotin blot; type: cell-based, mouse; conditions: 1 μM, 1, 6 and 24 hours, cytosolic vs membrane fraction
Text: as §1

Tau [3] = assay: Sarkosyl-insoluble Tau in hippocampus of hTau-KI mice after stereotactic injection; type: in vivo, mouse; conditions: 6.4 μM iBEp stereotactic, contralateral vehicle, 72 hours
Tau [4] = assay: Quantitative TMT phosphoproteomics of Tau in iBEp-treated WT neurons; type: cell-based, mouse; conditions: 1 μM, 1, 6 or 24 hours, WT primary neurons
Text: We noticed that neuroproteasome inhibition induces the shift of sarkosyl-insoluble Tau into a species which migrates at a higher molecular weight on an SDS-PAGE gel, at approximately 64 kDa (FIG. 5A, FIG. 5B, FIG. 5D, FIG. 5F, FIG. 5G). Similar shifts in molecular weight of Tau are observed in the AD brain and is a hallmark phenotype of multiple neurodegenerative disorders (109, 110). This molecular weight shift can in part be due to Tau phosphorylation at many residues. Therefore, we wanted to address whether iBEp-induced Tau aggregates are phosphorylated. Rather than profiling by a panel of phospho-specific antibodies against Tau, we took a more unbiased approach and measured Tau phosphorylation by quantitative phosphoproteomics. We treated primary WT neurons with iBEp for either 1, 6, or 24 hours and then performed sarkosyl fractionations.

cytosolic proteasomes = target: T2, cytosolic proteasomes (Mus musculus, UniProt O55234+P70195+Q60692); assay: Suc-LLVY-AMC proteasome activity, cytosolic fraction of iBEp-treated neurons; type: cell-based; conditions: 6 hours, DIV14 neurons, vs DMSO
T2 construct: endogenous in cells; host or cells: primary cortical neurons from WT mice (DIV13-14); membrane and cytosolic fractions
Text: as §1

[5] = tested on: Thioflavin S-positive aggregates; assay: Thioflavin S staining of hippocampal sections of hTau-KI mice after stereotactic injection; conditions: stereotactic injection, 72 hours, vs vehicle
Experimental: Scale bars=15 μm (FIG. 6C) Immunohistochemical analysis of mice stereotactically injected with iBEp to measure Tau phosphorylation in vivo. […] Mice were collected 72 hours post injection and sections were stained using indicated antibodies: NeuN (blue) and AT8 (pTau, green). 4×, 20× and 60× representative images are shown. Quantification of pTau signal intensity was normalized to NeuN intensity. Analysis was done blinded to experimental condition. Data are mean±SEM normalized either to DMSO or iBEP+CHX. n=2 sections/animal, ** p<0.01 by Paired T-test/experiment. Scale bars=500 μm (left), scale bar=25 μm (right). (FIG. 6D) Immunohistochemical analysis of mice stereotactically injected with iBEp to measure Thioflavin-S positive Tau aggregates in vivo. Four-to-five month old hTau-KI mice were treated identically to (FIG. 6C), but stained for Thioflavin S (magenta) to visualize β-sheet containing aggregates and immunostained with NeuN (blue). N=7 (3M, 4F). Left, Vehicle-treated hippocampus, Right, iBEp-treated hippocampus (red). […] Data are quantification of number of flame-like Thioflavin-S positive inclusions. Counting and analysis was blinded to experimental condition. *** p<0.001 by one-way ANOVA. Scale bars=100 μm. (FIG. 6E) Higher magnification image of flame-like Thioflavin S-positive inclusions (magenta), NeuN (blue). Top, ThioS alone, Bottom, merge with NeuN. Scale bar=20 μm. […]

[6] = iBEp permeability in vivo: stereotactic CA1 injection and membrane fractionation; parameters: species or system mouse; conditions: stereotactic injection into CA1, 72 hours
phosphorylated Tau = assay: Immunocytochemistry for phosphorylated Tau (CP13) in hTau-KI hippocampal neurons; type: cell-based, mouse; conditions: 12 hours, primary hippocampal hTau-KI neurons, vs controls
p62, LC3bI/II, Ulk1 = assay: Autophagy marker immunoblot in primary neurons; type: cell-based, mouse; conditions: 12 hours, DIV14 WT primary cortical neurons
Text: (FIG. 4A) (Top) Structure of azide-PEG24-epoxomicin handle to enable rapid conjugation of linkers to global proteasome inhibitor epoxomicin using Click chemistry. (Bottom) Structure of Neuroproteasome-specific inhibitor impermeant Biotin-PEG24-Epoxomicin (iBEp). (FIG. 4B) Assessing permeability of iBEp in primary neurons. […] Cytosolic (Cyto) and membrane (Mem) fractions were immunoblotted using indicated antibodies. (FIG. 4C) Proteasome catalytic activity of membrane (Mem) and cytosolic (Cyto) fractions of neurons treated with iBEp. […] Proteasome catalytic activity was assessed by monitoring degradation of Suc-LLVY-AMC; proteasome-dependent cleavage of the substrate increases AMC fluorescence. N=3 biological replicates. **** p<0.0001 by One-Way ANOVA. (FIG. 4D) Primary neurons treated with iBEp probed for autophagy markers. […] Lysates were immunoblotted using indicated antibodies against common autophagy markers. Quantification of p62, LC3b, and Ulk1 intensities normalized to Actin. […] (FIG. 4E) Schematic to analyze changes in sarkosyl-soluble and insoluble proteomes in response to neuroproteasome inhibition. […] Sarkosyl-soluble and insoluble fractions were labeled with Tandem Mass Tags (TMTpro) for quantitative mass spectrometry. (FIG. 4F) Differential enrichment of proteins in the sarkosyl-soluble fraction of neurons treated with iBEp versus DMSO was analyzed and plotted as log 2-fold change vs-log 10 (P-value). Green dots represent proteins enriched in the iBEp treatment compared to DMSO treatment. (FIG. 4G) Graphs plotting the log 2-fold change of select Neuroproteasome substrates enriched in the sarkosyl-soluble fraction from MS analysis in (FIG. 4F) compared to UPS substrates and autophagy markers ** p<0.01 (adjusted p-value after multiple corrections). (FIG. 4H) Differential enrichment of proteins in the sarkosyl-insoluble fraction of neurons treated with iBEp versus DMSO was analyzed and plotted as log 2-fold change vs −log 10 (P-value). Green dots represent proteins enriched in the iBEp treatment compared to DMSO treatment. (FIG. 4I) (Left) Identification of proteins which are exclusively enriched in the insoluble fraction with no corresponding change in the soluble fraction (red). Plk2 represents the only protein which is enriched in the soluble fraction with no corresponding change in the insoluble fraction (green). Proteins plotted as differences in log 2 fold changes. (Right) Graphs plotting the log 2 fold changes of insoluble Tau (top) and soluble Tau (bottom) enriched in neurons treated with iBEp vs DMSO. ** p<0.01 (adjusted p-value after multiple corrections).
FIG. 5A-5G: Neuroproteasomes are differentially regulated by ApoE isoforms to determine formation of endogenous sarkosyl-insoluble Tau inclusions. […]

CC[C@H](C)[C@H](NC(=O)CCOCCOCCOCCOCCOCCOCCOCCOCCOCCOCCOCCOCCOCCOCCOCCOCCOCCOCCOCCOCCOCCOCCOCCOCCn1cc(COCCOCCOCCOCCNC(=O)CCCC[C@@H]2SC[C@@H]3NC(=O)N[C@@H]32)nn1)C(=O)N[C@H](C(=O)N[C@H](C(=O)N[C@@H](CC(C)C)C(=O)[C@@]1(C)CO1)[C@@H](C)O)[C@@H](C)CC [iBEp, Biotin-PEG24-Epoxomicin]
increase in Puro-PLA-Tau signal relative to DMSO (newly synthesized Tau; DIV14 primary hippocampal neurons, puromycin 10 minutes): ~3.5 fold | newly synthesized Tau puncta greater than 24 nm in diameter (newly synthesized Tau; normalized to puncta number per size bin with DMSO): over twofold increase | cell penetration judged from proteomics (no UPS substrates or autophagy markers accumulate) (primary cortical neurons [1]; DIV12-14 primary cortical neurons): does not detectably penetrate cells | number of proteins increasing in the soluble fraction (primary cortical neurons [1]; vs DMSO): over 250 proteins | number of proteins that become sarkosyl-insoluble (primary cortical neurons [1]; vs DMSO): 52 proteins | proteasome activity in the membrane fraction (neuroproteasomes): almost entirely abrogated | location of the biotin signal of covalent proteasome inhibition (permeability) (primary cortical neurons [2]): only in the membrane fraction, and not in the cytosol | sarkosyl-insoluble Tau in hippocampi of hTau-KI mice (Tau [3]): strong increase of sarkosyl-insoluble Tau | Tau phosphorylation sites (human S202, T205, T217, S404) (Tau [4]): time-dependent increase in Tau phosphorylation at only 4 of 26 identified sites | cytosolic proteasome activity (cytosolic proteasomes): remains completely intact | ThioS staining in the CA1 region of hippocampi [5]: strong increase in ThioS staining | injected concentration at which penetration into the cytosol is observed [6]: 64 µM | CP13 (phosphorylated S202 Tau) signal (phosphorylated Tau): significant elevation of CP13 signal | LC3bI/II (p62, LC3bI/II, Ulk1): no change in either p62 or LC3bI/II levels | p62 levels (p62, LC3bI/II, Ulk1): no change in either p62 or LC3bI/II levels
